For test [1], the target named is T1, PDGFR Alpha Receptor Kinase (PDGFRalpha) (Homo sapiens, UniProt P16234).
T1 construct: PDGFRalpha intracellular domain protein (UPSTATE); purchased UPSTATE
As to the kind of experiment: Determination of PDGFR alpha receptor kinase (PDGFRalpha) inhibitory activity (alpha screen). As to conditions: PDGFRalpha intracellular domain protein, 25 μM ATP buffer; read-out: IC50 value (PDGFRalpha kinase inhibition). In kind it is biochemical. How it is done: The test compound dissolved in dimethyl sulfoxide (DMSO) was diluted with a buffer (50 mM Tris-HCl, pH 7.5, 5 mM MgCl2, 5 mM MnCl2, 2 mM dithiothreitol, 0.01% Tween-20).
Acceptor beads: PerkinElmer for alpha screen assay) was added to quench the reaction. The reaction solution was stood at 25° C. for 16 hr, and the count was measured using a plate reader·Fusion™ (manufactured by PerkinElmer). The kinase inhibitory rate (%) of the test compound was calculated by the following formula.
(§1) Inhibitory rate(%)=(1−(count of test compound−blank)÷(control−blank))×100
(§2) wherein the count of the solution reacted without addition of the compound is “control” and the count of the solution without addition of the compound and ATP is “blank”.

Test [2] has as its target T2, TIE2 Receptor Kinase (TIE2) (Homo sapiens, UniProt Q02763).
T2 construct: TIE2 intracellular domain protein (UPSTATE); purchased UPSTATE
Kind of test: Determination of TIE2 receptor kinase (TIE2) inhibitory activity (alpha screen). It is filed as biochemical. Particulars: TIE2 intracellular domain protein, 5 μM ATP buffer; read-out: IC50 value (TIE2 kinase inhibition). On the procedure: (§3) The test compound dissolved in dimethyl sulfoxide (DMSO) was diluted with a buffer (50 mM Tris-HCl, pH 7.5, 5 mM MgCl2, 5 mM MnCl2, 2 mM dithiothreitol, 0.01% Tween-20). A buffer (10 μl) containing 50 ng/ml TIE2 intracellular domain protein (UPSTATE) and 250 ng/ml biotin-labeled polypeptide biotinyl-poly-Glu:Tyr (4:1) (CIS Bio International) was added to the compound solution (5 μl). At 5 min after mixing a kinase enzyme, the compound and a biotin-labeled polypeptide, a buffer (10 μl) containing 5 μM ATP was added to the obtained mixture, the mixture was allowed to react at 25° C. for 10 min. Then, 25 μl of a stop solution (100 mM EDTA·2 sodium salt, 62.5 mM HEPES buffer (pH 7.4), 250 mM NaCl, 0.1% bovine serum albumin, 10 μg/ml Streptavidin Donor beads: PerkinElmer for alpha screen assay, 10 μg/ml Anti-phosphotyrosine (P-Tyr-66) Acceptor beads: PerkinElmer for alpha screen assay) was added to quench the reaction. The reaction solution was stood at 25° C. for 16 hr, and the count was measured using a plate reader·Fusion™ (manufactured by PerkinElmer). The kinase inhibitory rate (%) of the test compound was calculated by the following formula.
as §1, §2
Prism (Graphpad Software) according to the nonlinear-regression sigmoidal dose-response (variable slope) analysis method.

Test [3] deals with Human umbilical vein endothelial cells (HUVEC). As to the kind of experiment: Vascular endothelial cell growth inhibitory test. In kind it is cell-based. Particulars: Homo sapiens, 120 h, VEGF 120 ng/mL, culture 5 days, XTT reagent. On the procedure: Human umbilical vein endothelial cells (HUVEC, purchased from KURABO) were cultured in a gas incubator (37° C., CO2 5%) in a vascular endothelial cell medium (Invitrogen) containing 5% fetal calf serum and a basic fibroblast growth factor (2.5 ng/mL). To be specific, HUVEC suspended in the aforementioned vascular endothelial cell medium (Invitrogen) containing 5% fetal calf serum were seeded into a 96 well flat-bottom plate (50 μL, 3000 cells each well). After culturing overnight, various concentrations of test substance and the final concentration (120 ng/mL) of vascular endothelial growth factor (VEGF) were dissolved in a vascular endothelial cell medium (Invitrogen) containing 5% fetal calf serum and added to each well (50 μL). After culturing for 5 days, an XTT reagent (Wako Pure Chemical Industries, Ltd.) was added to each well (10 μL), and reacted in a gas incubator (37° C., CO2 5%) for 2-3 hr. The absorbance at 450 nm was measured by a microtiter plate reader, and the cell growth inhibitory activity was determined.
(In general: Tetrazolium assays rely on reduction of a dye to a coloured formazan, in cell work by metabolically active cells.)

Test [4] addresses T3, PDGFRbeta Receptor Kinase (PDGFRbeta) (Homo sapiens, UniProt P09619).
T3 construct: PDGFRbeta intracellular domain protein (UPSTATE); purchased UPSTATE
Kind of test: Determination of PDGFRbeta receptor kinase (PDGFRbeta) inhibitory activity (alpha screen). It is filed as biochemical. Particulars: PDGFRbeta intracellular domain protein, 25 μM ATP buffer; read-out: IC50 value (PDGFRbeta kinase inhibition). How it is done: as §3, with “containing 125” for “containing 50”, “ng/ml PDGFRbeta” for “ng/ml TIE2”, “containing 25” for “containing 5”, “for 30” for “for 10”
as §1, §2

Where only a bound is given, the exact number is not on record here.

T3 sequence (P09619 554-1106 limits assumed): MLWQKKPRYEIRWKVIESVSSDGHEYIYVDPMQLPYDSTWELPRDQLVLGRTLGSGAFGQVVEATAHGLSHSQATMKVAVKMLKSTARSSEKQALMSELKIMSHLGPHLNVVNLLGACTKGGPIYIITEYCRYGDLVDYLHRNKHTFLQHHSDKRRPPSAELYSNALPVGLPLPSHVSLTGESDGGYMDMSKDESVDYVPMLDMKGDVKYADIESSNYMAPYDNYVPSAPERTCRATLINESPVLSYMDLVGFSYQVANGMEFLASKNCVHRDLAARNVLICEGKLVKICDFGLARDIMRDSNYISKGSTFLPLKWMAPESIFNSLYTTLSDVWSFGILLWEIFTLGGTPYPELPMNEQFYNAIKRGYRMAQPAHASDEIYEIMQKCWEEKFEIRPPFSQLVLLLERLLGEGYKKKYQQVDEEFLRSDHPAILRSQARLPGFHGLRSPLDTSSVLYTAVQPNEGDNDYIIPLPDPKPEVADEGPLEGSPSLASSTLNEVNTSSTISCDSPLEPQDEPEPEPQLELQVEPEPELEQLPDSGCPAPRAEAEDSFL
T1 sequence (P16234 550-1089 limits assumed): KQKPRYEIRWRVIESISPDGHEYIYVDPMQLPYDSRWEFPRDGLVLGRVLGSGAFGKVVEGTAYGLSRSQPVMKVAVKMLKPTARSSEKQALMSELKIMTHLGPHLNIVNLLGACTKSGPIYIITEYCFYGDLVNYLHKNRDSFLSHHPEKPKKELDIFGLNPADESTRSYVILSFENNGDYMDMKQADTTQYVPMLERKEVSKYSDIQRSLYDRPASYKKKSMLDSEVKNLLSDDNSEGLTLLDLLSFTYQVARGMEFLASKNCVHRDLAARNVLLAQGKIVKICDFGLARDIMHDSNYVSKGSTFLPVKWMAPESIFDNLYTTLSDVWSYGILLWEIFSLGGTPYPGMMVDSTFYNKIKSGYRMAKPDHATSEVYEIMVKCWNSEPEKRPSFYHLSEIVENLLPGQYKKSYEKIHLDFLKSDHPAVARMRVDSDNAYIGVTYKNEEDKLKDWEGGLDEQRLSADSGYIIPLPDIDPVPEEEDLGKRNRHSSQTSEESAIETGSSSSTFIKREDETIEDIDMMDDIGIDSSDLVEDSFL
T2 sequence (Q02763 770-1124 limits assumed): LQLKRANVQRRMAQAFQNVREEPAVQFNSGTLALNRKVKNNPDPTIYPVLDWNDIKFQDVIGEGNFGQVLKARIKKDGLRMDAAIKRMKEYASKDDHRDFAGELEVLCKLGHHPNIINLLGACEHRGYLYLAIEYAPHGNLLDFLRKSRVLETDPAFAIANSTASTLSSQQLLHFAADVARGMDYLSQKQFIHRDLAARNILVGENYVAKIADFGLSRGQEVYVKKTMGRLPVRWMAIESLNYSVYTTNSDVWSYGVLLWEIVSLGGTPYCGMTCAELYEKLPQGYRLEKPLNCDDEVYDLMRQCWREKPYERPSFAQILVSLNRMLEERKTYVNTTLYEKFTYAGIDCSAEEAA

As a reminder, the IC50 is the midpoint of a concentration-inhibition curve. With `Cn1ccc2ncnc(Oc3ccc(NC(=O)Nc4cccc(C(F)(F)F)c4)c(Cl)c3)c21` [Example 15, N-{2-chloro-4-[(5-methyl-5H-pyrrolo[3,2-d]pyrimidin-4-yl)oxy]phenyl}-N′-[3-(trifluoromethyl)phenyl]urea], the IC50 was no more than 500 nM in test [1], no more than 5 nM in test [2], 8.2 nM in test [3] and no more than 500 nM in test [4].
As to `Cn1ccc2ncnc(Oc3ccc(NC(=O)Nc4cccc(OC(F)(F)F)c4)c(Cl)c3)c21` [Example 20, N-{2-chloro-4-[(5-methyl-5H-pyrrolo[3,2-d]pyrimidin-4-yl)oxy]phenyl}-N′-[3-(trifluoromethoxy)phenyl]urea], the IC50 in test [1] is no more than 500 nM; in test [2] it was no more than 5 nM; in test [3] it was 6.6 nM; in test [4], no more than 500 nM.
Take `Cc1cc(Oc2ncnc3ccn(C)c23)ccc1NC(=O)Nc1cccc(C(F)(F)F)c1` [Example 41, N-{2-methyl-4-[(5-methyl-5H-pyrrolo[3,2-d]pyrimidin-4-yl)oxy]phenyl}-N′-[3-(trifluoromethyl)phenyl]urea]: the IC50 is no more than 500 nM in test [1], no more than 5 nM in test [2], 19 nM in test [3] and no more than 500 nM in test [4].
Turning to `CCn1ccc2ncnc(Oc3ccc(NC(=O)Nc4cccc(C(F)(F)F)c4)c(Cl)c3)c21` [Example 47, N-{2-chloro-4-[(5-ethyl-5H-pyrrolo[3,2-d]pyrimidin-4-yl)oxy]phenyl}-N′-[3-(trifluoromethyl)phenyl]urea], the IC50 in test [1] is no more than 500 nM; in test [2] it was no more than 5 nM; in test [3], 11 nM; in test [4], no more than 500 nM.

Values taken from US20090137580A1, “Fused Heterocyclic Derivatives and Use Thereof” (Takeda Pharmaceutical Company Limited, priority 2005, published 2009).
